Starred links: 1 amine or outer side, 2 acyl side, 3 side chain; linkers in the order of their positions; H or OH if unused. Positions of bridges follow the written chain, without caps; N, C: chain ends. Non-standard residues stand in square brackets, D forms with d. Residues, ends and D or L forms follow the SMILES beside them. *: point of attachment. X1 = O=C([C@@H]1CCNc2c(N[*:1])cc3cc(O)c(O)cc3[n+]21)[*:2]; X4 = O=C([C@@H]1CCN=C2C(N[*:1])=Cc3cc(O)c(O)cc3N21)[*:2]; dOrn(N5-OH,N5-CHO) = N[C@H](CCCN(O)C=O)C(=O)O; Butanoyl(2-oxo,4-COOH) = O=C(O)CCC(=O)C(=O)*; X5 = O=CN(O)CCC[C@H](N[*:1])C(=O)[*:2]; d(aThr) = C[C@@H](O)[C@@H](N)C(=O)O; Suc = O=C(CCC(=O)[*:2])[*:1]; X2 = O=C1[C@@H](N*)CCCN1[O-]; Orn = NCCC[C@H](N)C(=O)O
Key:
Format in all cases: binding
[1] = molecular target: T1, human lipocalin 2 (hNGAL) mutein SEQ ID NO: 46 (G-N-I-K, positions 95-98, deleted) (Homo sapiens, UniProt P80188, A60L/C107S/D97Q/DEL115-118/I61A/K154W/K93Y/L123Q/L56E/L90R/Q48H/Q69K/R101V/S147V/S88E/W99D/Y120E/Y126E/Y152F/Y72M); assay: SPR (Biacore T200), mutein SEQ ID NO: 46; settings: 25° C.
T1 construct: made in house; host or cells: E. coli
Procedure: (§1) In a Surface Plasmon Resonance (SPR) based assay a Biacore T200 instrument (GE Healthcare) was used to measure the binding affinity of muteins to pyoverdine I succinyl, -succinamid, -α-ketoglutaryl with complexed iron ion or to pyoverdine II succinyl, -succinamid, -α-ketoglutaryl with complexed iron ion or to pyoverdine III succinyl, -succinamid, -α-ketoglutaryl with complexed iron ion. Muteins selected for binding to pyoverdines and negative control (SEQ ID NO: 64) were biotinylated for 2 h at room temperature applying an appropriate excess of EZ-Link NHS-PEG4-Biotin (Thermo, […]) followed by separation of non-reacted Biotin using a Zeba Spin Desalting Plate (Thermo, […]) according to the manufactures instructions.
(§2) In the SPR affinity assay, biotinylated muteins and negative control were captured on a sensor chip CAP using the Biotin CAPture Kit (GE Healthcare): Sensor Chip CAP is pre-immobilized with an ssDNA oligo. Undiluted Biotin CAPture Reagent (streptavidin conjugated with the complementary ss-DNA oligo) was applied at a flow rate of 2 μl/min for 300 s. Subsequently, 1 μg/ml to 100 μg/mL of biotinylated muteins or negative control were applied for 300 s at a flow rate of 5 μl/min. The reference channel was loaded with Biotin CAPture Reagent only.
(§3) Applying a flow rate of 30 μl/min, a single cycle or multi cycle kinetics approach was used with a sample contact time of 120-180 s and a dissociation time of 900-2400 s. […] After ligand immobilization, for analysis using single cycle kinetics all 4-5 concentrations of Pvd were applied consecutively in ascending order before the dissociation was monitored. For analysis using multi cycle kinetics 4 dilutions of Pvd were applied, each followed a dissociation phase. All measurements were performed at 25° C. […] Data were evaluated with Biacore T200 Evaluation software (V 1.0). Double referencing was used. A 1:1 Binding model was used to fit the raw data.

[2] = molecular target: T2, human lipocalin 2 (hNGAL) mutein SEQ ID NO: 45 (Homo sapiens, UniProt P80188, A60L/C107S/D97K/I61A/K154W/K93H/L123Q/L56E/L90R/N116L/Q48H/Q69M/R101V/S147V/S88E/W99D/Y120D/Y126E/Y72M); assay: SPR (Biacore T200), mutein SEQ ID NO: 45; settings: 25° C.
T2 construct: made in house; host or cells: E. coli
Procedure: as §1, §2, §3

[3] = molecular target: T3, human lipocalin 2 (hNGAL) mutein SEQ ID NO: 47 (Homo sapiens, UniProt P80188, A60L/C107S/D97K/I61A/K154W/K93H/L123Q/L56E/L62R/L90R/N116L/Q48H/Q69M/R101V/S125P/S147V/S88E/W99D/Y120D/Y126E/Y72M); assay: SPR (Biacore T200), mutein SEQ ID NO: 47; settings: 25° C.
T3 construct: made in house; host or cells: E. coli
Procedure: as §1, §2, §3

[4] = molecular target: T4, human lipocalin 2 (hNGAL) mutein SEQ ID NO: 48 (Homo sapiens, UniProt P80188, A60L/C107S/D67N/D97K/I61A/K154W/K93H/L123Q/L56E/L90R/N116L/Q48H/Q69M/R101V/S125P/S147V/S88E/T165P/W99D/Y120D/Y126E/Y72M); assay: SPR (Biacore T200), mutein SEQ ID NO: 48; settings: 25° C.
T4 construct: made in house; host or cells: E. coli
Procedure: as §1, §2, §3

[5] = molecular target: T5, human lipocalin 2 (hNGAL) mutein SEQ ID NO: 43 (Homo sapiens, UniProt P80188, A60L/C107S/D97K/I61A/K154W/K93Q/L123Q/L56E/L90R/N116L/Q48H/Q69M/R101V/S147V/S88E/W99D/Y120D/Y126E/Y72M); assay: SPR (Biacore T200), mutein SEQ ID NO: 43; settings: 25° C.
T5 construct: made in house; host or cells: E. coli
Procedure: as §1, §2, §3

[6] = molecular target: T6, human lipocalin 2 (hNGAL) mutein SEQ ID NO: 44 (Homo sapiens, UniProt P80188, A60L/C107S/D97K/I61T/K154W/K93R/L123Q/L56E/L90R/N116V/Q48H/Q69M/R101V/S147V/S88E/W99D/Y120D/Y126E/Y72M); assay: SPR (Biacore T200), mutein SEQ ID NO: 44; settings: 25° C.
T6 construct: made in house; host or cells: E. coli
Procedure: as §1, §2, §3

[7] = molecular target: T7, human lipocalin 2 (hNGAL) mutein SEQ ID NO: 49 (Homo sapiens, UniProt P80188, A60L/C107S/D65G/D97K/I61A/K154W/K66R/K93H/L123Q/L56E/L90R/N116L/Q48H/Q69M/R101V/S125P/S147V/S88E/W99D/Y120D/Y126E/Y72M); assay: SPR (Biacore T200), mutein SEQ ID NO: 49; settings: 25° C.
T7 construct: made in house; host or cells: E. coli
Procedure: as §1, §2, §3

[8] = molecular target: negative control lipocalin SEQ ID NO: 64 (Homo sapiens, UniProt P80188, C107S/Q48H); assay: SPR (Biacore T200), negative control SEQ ID NO: 64; settings: 1200 nM
Procedure: as §1, §2
as §3, with “data. […]” for “data.”

[9] = molecular target: T8, human lipocalin 2 (hNGAL) mutein SEQ ID NO: 33 (Homo sapiens, UniProt P80188, A60E/C107S/D97N/E64D/I61V/K145N/K154W/K93N/L123V/L56V/L90R/N116K/N85Q/Q48H/Q69G/R101E/R92H/S147K/S88E/W99F/Y120N/Y126M/Y152G/Y72P); assay: SPR (Biacore T200), mutein SEQ ID NO: 33; settings: 25° C.
T8 construct: made in house; host or cells: E. coli
Procedure: (§4) In a Surface Plasmon Resonance (SPR) based assay a Biacore T200 instrument (GE Healthcare) was used to measure the binding affinity of muteins to pyoverdine I succinyl, -succinamid, -α-ketoglutaryl with complexed iron ion or to pyoverdine II succinyl, -succinamid, -α-ketoglutaryl with complexed iron ion or to pyoverdine III succinyl, -succinamid, -α-ketoglutaryl with complexed iron ion. Muteins selected for binding to pyoverdines and negative control (SEQ ID NO: 64) were biotinylated for 2 h at room temperature applying an appropriate excess of EZ-Link NHS-PEG4-Biotin (Thermo, Cat#21329) followed by separation of non-reacted Biotin using a Zeba Spin Desalting Plate (Thermo, Cat#21329) according to the manufactures instructions.

[10] = molecular target: T9, human lipocalin 2 (hNGAL) mutein SEQ ID NO: 32 (Homo sapiens, UniProt P80188, A60E/C107S/D97N/E64D/I61V/K145N/K154W/K93N/L123V/L56V/L90R/N116K/N85D/Q48H/Q69G/R101E/R92H/S147K/S88E/W99F/Y120N/Y126M/Y152G/Y72P); assay: SPR (Biacore T200), mutein SEQ ID NO: 32; settings: 25° C.
T9 construct: made in house; host or cells: E. coli
Procedure: as §4

[11] = molecular target: T10, human lipocalin 2 (hNGAL) mutein SEQ ID NO: 35 (Homo sapiens, UniProt P80188, A60T/C107S/D97H/K145I/K154W/K93R/L123T/L56V/L90R/N85Q/Q48H/Q69G/R101D/R92I/S147R/S88D/T74A/W99Y/Y126Q/Y152I/Y72N); assay: SPR (Biacore T200), mutein SEQ ID NO: 35; settings: 25° C.
T10 construct: made in house; host or cells: E. coli
T10 sequence (P80188 21-198 with the stated changes): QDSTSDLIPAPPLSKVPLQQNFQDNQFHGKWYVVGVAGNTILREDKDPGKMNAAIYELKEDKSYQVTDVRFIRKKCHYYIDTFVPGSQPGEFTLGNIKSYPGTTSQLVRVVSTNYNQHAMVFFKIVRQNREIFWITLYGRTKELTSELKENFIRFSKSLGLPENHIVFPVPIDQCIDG
Procedure: as §4

T6 sequence (P80188 21-198 with the stated changes): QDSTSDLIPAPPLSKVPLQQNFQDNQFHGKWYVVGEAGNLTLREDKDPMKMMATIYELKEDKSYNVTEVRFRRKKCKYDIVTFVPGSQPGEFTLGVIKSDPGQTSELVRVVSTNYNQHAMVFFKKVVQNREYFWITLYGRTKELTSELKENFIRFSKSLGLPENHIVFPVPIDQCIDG
T7 sequence (P80188 21-198 with the stated changes): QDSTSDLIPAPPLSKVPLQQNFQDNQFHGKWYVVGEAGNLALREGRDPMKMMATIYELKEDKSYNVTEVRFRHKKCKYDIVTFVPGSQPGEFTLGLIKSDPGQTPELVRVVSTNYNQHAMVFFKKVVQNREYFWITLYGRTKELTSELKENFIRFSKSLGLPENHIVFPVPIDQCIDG
T1 sequence (P80188 with tags, fused parts or gaps with the stated changes): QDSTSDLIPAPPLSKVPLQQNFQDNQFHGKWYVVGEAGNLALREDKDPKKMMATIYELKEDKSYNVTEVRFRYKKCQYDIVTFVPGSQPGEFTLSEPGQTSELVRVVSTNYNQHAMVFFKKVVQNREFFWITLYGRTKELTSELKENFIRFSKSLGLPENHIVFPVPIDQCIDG
T2 sequence (P80188 21-198 with the stated changes): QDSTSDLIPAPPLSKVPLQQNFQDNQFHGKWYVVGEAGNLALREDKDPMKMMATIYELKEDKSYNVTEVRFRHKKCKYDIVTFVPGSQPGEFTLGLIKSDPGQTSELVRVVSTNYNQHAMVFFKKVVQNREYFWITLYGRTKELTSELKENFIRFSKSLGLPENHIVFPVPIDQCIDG
T4 sequence (P80188 21-198 with the stated changes): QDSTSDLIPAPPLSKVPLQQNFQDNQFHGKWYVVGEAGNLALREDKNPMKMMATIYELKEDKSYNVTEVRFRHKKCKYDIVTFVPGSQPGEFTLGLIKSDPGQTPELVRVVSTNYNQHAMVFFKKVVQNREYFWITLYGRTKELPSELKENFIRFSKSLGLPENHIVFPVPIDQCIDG
T8 sequence (P80188 21-198 with the stated changes): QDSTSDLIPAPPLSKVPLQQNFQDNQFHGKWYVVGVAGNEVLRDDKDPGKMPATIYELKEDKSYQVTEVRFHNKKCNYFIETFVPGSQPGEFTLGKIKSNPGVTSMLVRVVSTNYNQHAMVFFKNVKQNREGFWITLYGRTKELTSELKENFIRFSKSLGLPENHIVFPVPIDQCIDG
T3 sequence (P80188 21-198 with the stated changes): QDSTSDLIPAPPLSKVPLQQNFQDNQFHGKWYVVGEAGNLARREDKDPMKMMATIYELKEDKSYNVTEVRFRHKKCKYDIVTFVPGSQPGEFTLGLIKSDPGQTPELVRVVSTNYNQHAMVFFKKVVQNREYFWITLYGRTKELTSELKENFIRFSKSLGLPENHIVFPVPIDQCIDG
T9 sequence (P80188 21-198 with the stated changes): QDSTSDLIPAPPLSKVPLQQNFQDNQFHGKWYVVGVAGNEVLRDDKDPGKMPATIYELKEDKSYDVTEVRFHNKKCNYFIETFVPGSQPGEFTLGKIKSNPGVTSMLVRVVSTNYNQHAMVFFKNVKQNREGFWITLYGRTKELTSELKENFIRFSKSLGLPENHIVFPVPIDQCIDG
T5 sequence (P80188 21-198 with the stated changes): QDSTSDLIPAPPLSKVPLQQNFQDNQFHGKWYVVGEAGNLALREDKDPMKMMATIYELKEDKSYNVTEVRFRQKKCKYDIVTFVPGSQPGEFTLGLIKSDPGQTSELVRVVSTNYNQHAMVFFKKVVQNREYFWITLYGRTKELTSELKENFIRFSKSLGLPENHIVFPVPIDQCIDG
negative control lipocalin SEQ ID NO: 64, sequence (P80188 21-198 Q48H/C107S): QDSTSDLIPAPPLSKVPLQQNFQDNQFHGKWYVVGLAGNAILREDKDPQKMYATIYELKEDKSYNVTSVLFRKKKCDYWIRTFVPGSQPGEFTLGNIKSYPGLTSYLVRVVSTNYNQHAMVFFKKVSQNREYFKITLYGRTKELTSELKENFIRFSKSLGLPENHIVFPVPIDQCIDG

| SMILES | Kd [1] [nM] | koff [1] [s⁻¹] | kon [1] [M⁻¹ s⁻¹] | Kd [2] [nM] | koff [2] [s⁻¹] | kon [2] [M⁻¹ s⁻¹] | Kd [3] [nM] | koff [3] [s⁻¹] | kon [3] [M⁻¹ s⁻¹] | Kd [4] [nM] | koff [4] [s⁻¹] | kon [4] [M⁻¹ s⁻¹] | Kd [5] [nM] | koff [5] [s⁻¹] | kon [5] [M⁻¹ s⁻¹] | Kd [6] [nM] | koff [6] [s⁻¹] | kon [6] [M⁻¹ s⁻¹] | Kd [7] [nM] | koff [7] [s⁻¹] | further results |
| --- | --- | --- | --- | --- | --- | --- | --- | --- | --- | --- | --- | --- | --- | --- | --- | --- | --- | --- | --- | --- | --- |
| NC(=O)CCC(=O)Nc1cc2cc([O-])c([O-])cc2[n+]2c1NCC[C@H]2C(=O)N[C@H](CO)C1=NCC[C@@H](C(=O)N[C@@H](CCCN([O-])C=O)C(=O)N[C@@H](CCC(N)=O)C(=O)N[C@H](CCC(N)=O)C(=O)N[C@H](CCCN([O-])C=O)C(=O)NCC(=O)O)N1.[Fe+3] [Pvd III sa (+Fe)] | 1.58 | 6.9e-05 | 43600 | 3.03 | 9.91e-05 | 32700 | 0.2 | 2.52e-05 | 128000 | 0.64 | 9.51e-05 | 148000 | 3.04 | 0.000107 | 35200 | 2.94 | 8.9e-05 | 30300 | 0.84 | 0.000112 | kon [7]: 134000 M⁻¹ s⁻¹ |
| C[C@@H](O)[C@@H](NC(=O)CNC(=O)[C@H](CCCN)NC(=O)[C@@H](CCCN([O-])C=O)NC(=O)[C@@H](CO)NC(=O)[C@@H]1CCNc2c(NC(=O)CCC(=O)O)cc3cc([O-])c([O-])cc3[n+]21)C(=O)N[C@@H](CO)C(=O)N[C@H]1CCCN([O-])C1=O.[Fe+3] [Pvd II s (+Fe)] (Suc-[X1][dS][dOrn(N5-OH,N5-CHO)][Orn]G[d(aThr)]S-X2) |  |  |  |  |  |  |  |  |  |  |  |  |  |  |  |  |  |  |  |  | absence of binding to negative control [8]: absence of binding |
| NC(=O)CC[C@H](NC(=O)[C@H](CCCN([O-])C=O)NC(=O)[C@@H]1CCN=C([C@@H](CO)NC(=O)[C@@H]2CCNc3c(NC(=O)C(=O)CCC(=O)O)cc4cc([O-])c([O-])cc4[n+]32)N1)C(=O)N[C@H](CCC(N)=O)C(=O)N[C@H](CCCN([O-])C=O)C(=O)NCC(=O)O.[Fe+3] [Pvd III aKG (+Fe)] | 3.15 | 0.000241 | 76700 | 6.99 | 0.00033 | 47300 | 8.97 | 0.000262 | 29200 | 5.81 | 0.000158 | 27200 | 5.29 | 0.000303 | 57300 | 5.64 | 0.000271 | 48200 | 1.53 | 4.29e-05 | kon [7]: 28100 M⁻¹ s⁻¹ |
| C[C@@H](O)[C@@H](NC(=O)CNC(=O)[C@H](CCCN)NC(=O)[C@@H](CCCN([O-])C=O)NC(=O)[C@@H](CO)NC(=O)[C@@H]1CCNc2c(NC(=O)C(=O)CCC(=O)O)cc3cc([O-])c([O-])cc3[n+]21)C(=O)N[C@@H](CO)C(=O)N[C@H]1CCCN([O-])C1=O.[Fe+3] [Pvd II aKG (+Fe)] ({Butanoyl(2-oxo,4-COOH)}-[X1][dS][dOrn(N5-OH,N5-CHO)][Orn]G[d(aThr)]S-X2) |  |  |  |  |  |  |  |  |  |  |  |  |  |  |  |  |  |  |  |  | Kd [9]: 4.19 nM; koff [9]: 0.000416 s⁻¹; kon [9]: 99300 M⁻¹ s⁻¹; Kd [10]: 3.44 nM; koff [10]: 0.000374 s⁻¹; kon [10]: 109000 M⁻¹ s⁻¹; Kd [11]: 3.42 nM; koff [11]: 0.000149 s⁻¹; kon [11]: 43500 M⁻¹ s⁻¹ |
| C[C@@H](O)[C@@H]1NC(=O)[C@H](CCCN(O)C=O)NC(=O)[C@@H](NC(=O)[C@H](CCCN(O)C=O)NC(=O)[C@@H](CO)NC(=O)[C@H](CCCNC(=N)N)NC(=O)[C@@H](CO)NC(=O)[C@@H]2CCN=C3C(NC(=O)CCC(=O)O)=Cc4cc(O)c(O)cc4N32)CCCCNC(=O)[C@H]([C@@H](C)O)NC1=O.[Fe+3] [Pvd I s (+Fe)] (Suc-[X4][dS]R[dS][X5]K[X5]TT; lactam 6-C) |  |  |  |  |  |  |  |  |  |  |  |  |  |  |  |  |  |  |  |  | absence of binding to negative control [8]: absence of binding |

Reference: US10329334B2 (SANOFI, priority 2015, dated 2019)
